Legend:
HeLa cells [1] = assay: camptothecin-induced RAD51 and H2AX foci formation, immunofluorescence; assay type: cell-based, human; conditions: camptothecin for 1 hr after pre-treatment; FIG. 8C
Method: FIG. 8 is a composite figure showing that C527 inhibits homologous recombination repair. […] U2OS-DRGFP cells were transfected with I-SCE-I and then exposed to C527 at the indicated concentration for 24 h. Cells were then subjected to flow cytometry analysis. The percentage of GFP positive cells was normalized by solvent vehicle treated group. […] HeLa cells, integrated with the NHEJ reporter, were treated with C527 and analyzed as described in (FIG. 8A). […] HeLa cells were pre-treated with DMSO or C527 at the indicated concentration and then exposed to camptothecin (CPT) for 1 hr. RAD51 foci were detected using immunofluorescence.
Cells were pre-extracted with extraction buffer (0.25% Triton-X100 in 200 mM HEPES at pH 7.4, 50 mM NaCl, 3 mM MgCl2 and 300 mM sucrose) on ice for 2 min prior to fixation with 4% paraformaldehyde. RAD51 foci were detected using anti-RAD51 antibody (Santa Cruz Biotechnology) and visualized using Alexa Fluor 488-conjugated secondary antibody. The quantification of cells with RAD51 foci was performed by counting the number of cells with RAD51 foci. At least 200 cells were counted from each sample. Data are represented as mean±SD from three independent experiments.
Camptothecin activated the assembly of RAD51 and H2AX foci.

USP1 = target: T1, USP1 (Homo sapiens, UniProt O94782); assay: Ub-vinyl sulfone conjugation of USP1 in lysates of compound-treated HeLa cells; assay type: cell-based
T1 construct: endogenous in cells; host or cells: HeLa
T1 sequence (O94782 whole entry): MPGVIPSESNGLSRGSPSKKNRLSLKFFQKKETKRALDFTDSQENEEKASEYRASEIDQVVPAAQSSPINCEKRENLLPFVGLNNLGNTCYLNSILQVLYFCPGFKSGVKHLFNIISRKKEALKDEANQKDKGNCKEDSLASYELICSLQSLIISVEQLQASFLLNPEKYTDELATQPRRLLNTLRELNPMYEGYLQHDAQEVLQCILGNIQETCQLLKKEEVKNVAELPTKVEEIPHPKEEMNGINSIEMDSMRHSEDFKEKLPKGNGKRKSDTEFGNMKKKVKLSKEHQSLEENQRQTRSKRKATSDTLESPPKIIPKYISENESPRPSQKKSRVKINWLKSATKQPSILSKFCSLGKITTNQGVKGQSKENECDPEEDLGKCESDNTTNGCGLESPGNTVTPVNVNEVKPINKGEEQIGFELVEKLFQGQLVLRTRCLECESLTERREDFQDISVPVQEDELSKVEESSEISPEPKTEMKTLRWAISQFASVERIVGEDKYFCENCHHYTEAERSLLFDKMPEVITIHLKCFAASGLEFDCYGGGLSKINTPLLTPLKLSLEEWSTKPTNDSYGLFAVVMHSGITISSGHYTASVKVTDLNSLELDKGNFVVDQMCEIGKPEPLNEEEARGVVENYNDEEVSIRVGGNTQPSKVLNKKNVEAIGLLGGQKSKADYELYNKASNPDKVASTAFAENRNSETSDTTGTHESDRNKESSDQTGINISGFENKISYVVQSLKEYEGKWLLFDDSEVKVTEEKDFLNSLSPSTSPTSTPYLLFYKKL
T1 sequence (Q8TAF3 whole entry partner): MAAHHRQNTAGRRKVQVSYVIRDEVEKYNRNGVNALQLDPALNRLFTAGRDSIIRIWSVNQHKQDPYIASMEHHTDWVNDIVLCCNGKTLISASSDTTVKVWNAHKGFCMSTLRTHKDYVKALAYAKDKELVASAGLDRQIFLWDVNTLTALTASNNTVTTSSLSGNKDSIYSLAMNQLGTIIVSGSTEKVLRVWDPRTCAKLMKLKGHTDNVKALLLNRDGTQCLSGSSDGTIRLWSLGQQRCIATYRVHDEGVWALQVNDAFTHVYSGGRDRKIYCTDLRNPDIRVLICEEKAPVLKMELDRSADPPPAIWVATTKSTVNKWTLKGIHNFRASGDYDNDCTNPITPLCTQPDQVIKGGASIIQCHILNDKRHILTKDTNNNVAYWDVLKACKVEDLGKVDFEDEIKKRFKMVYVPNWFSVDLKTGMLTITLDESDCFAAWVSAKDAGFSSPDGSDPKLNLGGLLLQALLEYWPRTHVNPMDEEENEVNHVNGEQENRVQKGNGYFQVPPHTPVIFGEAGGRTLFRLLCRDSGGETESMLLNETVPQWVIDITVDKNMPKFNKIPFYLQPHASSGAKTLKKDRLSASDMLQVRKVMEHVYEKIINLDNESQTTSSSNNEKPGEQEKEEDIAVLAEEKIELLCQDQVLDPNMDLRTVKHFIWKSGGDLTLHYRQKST
Method: In one set of experiments, HeLa cells were incubated in the presence of 50 μM of selected inhibitors including the compound of Formula III (933) and the compound of Formula IV (527) for 2, 4, or 6 hours, followed by cell lysis. […] Lysates were incubated with the Ub-vinyl sulfone (Ub-Vs) reagent for 40 minutes. Proteins were electrophoresed on SDS-PAGE, transferred to nitrocellulose, and immunoblotted with the anti-USP1 antibody.
HeLa cells were incubated with the compound of Formula IV (527) for eight hours, followed by cell lysis and incubation of protein extract with Ub-vinyl sulfone.

HeLa cells [2] = assay: sensitization of HeLa cells to mitomycin C, cell survival by redox dye; assay type: cell-based, human; conditions: 20 micromolar compound; MMC 0, 200, or 500 nM; FIG. 4
Method: HeLa cells were pretreated for six hours with selected concentrations (0, 200, or 500 nM) of mitomycin C (MMC), washed, then exposed to selected concentrations (0, 10, or 20 μM) of the compound of Formula IV (527) for eight hours. Cell survival was measured by redox dye.

[3] = tested on: endogenous DUB enzyme complexes; assay: HA-Ub-VS labelling of other endogenous DUBs in HeLa cell extracts; assay type: biochemical, human; conditions: HeLa cell extracts pretreated 4 h (Ub-Ald 5 μM), then Ub-VS 40 min at 30° C.; FIG. 7
Method: FIG. 7 is a composite figure depicting preferential inhibition of the activity of native USP1/UAF1 by C527. HeLa cell extracts were incubated with ubiquitin-aldehyde (Ub-Ald, 5 μM) or C527 at indicated concentrations for 4 h, followed by the addition of 0.5 μM Ub-Vs for 40 min. The reaction was split into two aliquots and subjected to immunoblotting for HA or USP1, respectively.
The ability of C527 to inhibit the deubiquitinating activity of native USP1 complexes derived from human cells was determined next (FIG. 7). For this purpose, the HA-tagged ubiquitin-VS, an affinity reagent known to covalently modify and trap active DUB enzymes in cell extracts was used. Cell extracts prepared from HeLa cells were pretreated with increasing concentrations of C527 for 4 h, followed by the incubation with Ub-VS for 40 min at 30° C. The enzymatic activity of endogenous DUBs was indicated by the conjugation of Ub-VS, detected as HA-labeling (see FIG. 7, high molecular weight bands). […] Ub-VS conjugation was inhibited by ubiquitin-aldehyde (Ub-Ald), a non-specific inhibitor of DUBs (lane 3).

HeLa cells [4] = assay: clonogenic assay; assay type: cell-based, human; conditions: FIG. 9B
Method: FIG. 9 is a composite figure showing that C527 causes DNA damage and inhibits the proliferation of tumor cells. […] HeLa cells were treated with C527 at the indicated concentrations for 24 hrs, and cells were subjected to immunoblotting. Mitomycin C (MMC, 1 μM) was used as a positive control. […] HeLa cells were seeded in a 6-well plate and treated with C527 at the indicated concentrations. Cell proliferation was evaluated using a clonogenic assay.
Cells were seeded in 6-well plate at 500 cells per well followed by treatment with C527. Colonies were allowed to grow for 7-10 days, fixed with a solution containing 10% Methanol and 10% acetic acid at room temperature for 15 min and then stained with 1% crystal violet in methanol. Colonies of >50 cells were counted, and the surviving fraction was calculated and normalized to untreated control.
Impaired HR integrity may lead to genotoxic effect. Genotoxic agents are known to directly activate DNA damage response pathways, resulting in FANCD2 monoubiquitination and CHK1 phosphorylation (FIG. 9A).

UCH-L3 = target: T2, UCH-L3 (Homo sapiens, UniProt P15374); assay: deubiquitinating enzyme assay with UCH-L3; assay type: biochemical; conditions: in vitro
T2 sequence (P15374 1-230): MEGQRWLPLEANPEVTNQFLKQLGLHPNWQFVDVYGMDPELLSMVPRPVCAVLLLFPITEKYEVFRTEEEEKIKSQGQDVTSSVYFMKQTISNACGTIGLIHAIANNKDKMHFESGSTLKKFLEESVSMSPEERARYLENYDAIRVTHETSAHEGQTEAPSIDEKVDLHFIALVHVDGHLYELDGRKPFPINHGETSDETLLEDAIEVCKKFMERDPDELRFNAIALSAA
Method: The in vitro enzymatic assays were performed using purified proteins from Sf9 cells as described previously (Cohn et al.). The assays using ubiquitin-AMC (Ub-7-amido-4-methylcoumarin; Boston Biochem) as substrate was carried out in a reaction buffer containing 20 mM HEPES-KOH (pH 7.8), 20 mM NaCl, 0.1 mg/ml ovalbumin, 0.5 mM EDTA and 10 mM dithiothreitol. The fluorescence was measured by FluoStar Galaxy Fluorometer (BMG Labtech). For the Ub-vinylsulfone (VS) assay, the proteins were incubated with Ub-VS at 0.5 μM final concentration for 1 h at 30° C., followed by the immunoblotting analysis.
To examine the specificity of C527 in USP1/UAF1 inhibition, its ability to inhibit other DUB enzymes in vitro was examined. […] Moreover, the active complex of USP12 contains an additional WD40 subunit (WDR20). […] UCH-L1 and UCH-L3 are members of a different subclass of deubiquitinating enzymes, referred to as the ubiquitin-carboxy terminal hydrolases (Mermerian A H, Case A, Stein R L, Cuny G D. Structure-activity relationship, kinetic mechanism, and selectivity for a new class of ubiquitin C-terminal hydrolase-L1 (UCH-L1) inhibitors. Bioorg Med Chem Lett. 2007; 17:3729-3732). […] Taken together, C527 is a pan-deubiquitinating enzyme inhibitor in vitro, though it has some specificity for the USP subfamily of DUBs, compared to the UCH subfamily.

## O=C1c2ccccc2C(=O)c2oc(-c3ccc(F)cc3)nc21 [Formula IV (527)]
HeLa cells [1]
  H2AX foci formation: non-detectable effect
  RAD51 foci formation: inhibited RAD51 foci formation
USP1; HeLa cells incubated eight hours, increasing concentrations, FIG. 3
  USP1 deubiquitinase activity (Ub-vinyl sulfone): dose-dependent blockade
USP1; HeLa cells, 50 μM inhibitor for 2, 4, or 6 hours, lysates with Ub-Vs 40 minutes, FIG. 2
  Ub-Vs conjugation of USP1 / deubiquitinase activity: potent inhibitor of deubiquitinase activity
HeLa cells [2]
  sensitization to the cytotoxic effects of MMC: sensitization of the HeLa cells
[3]
  Ub-VS labeling of endogenous DUBs (HA-labeling): failed to inhibit
HeLa cells [4]
  cell proliferation: inhibited cell proliferation
UCH-L3
  inhibitory effect on UCH-L3: considerably less inhibitory effect
